In US20250257034A1, “INDOLE DERIVATIVES AS SEROTONERGIC AGENTS USEFUL FOR THE TREATMENT OF DISORDERS RELATED THERETO” (priority 2023, published 2025):
Values joined by “and” are separate entries in the source; they are usually repeats but may differ in a detail not shown here. Equal values may be shown once. Read-outs that look alike come from different tables or passages of the source.

Columns and labels:
[1] = Mouse liver microsomes stability; type: in vitro ADME; conditions: Mouse liver microsomes
[2] = Rat liver microsomes stability; type: in vitro ADME; conditions: Rat liver microsomes
Outline: (§1)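 In this assay, 2 μM compound is incubated with NADPH-supplemented liver microsomes (human pooled; male rat; male mouse) at 37° C for up to 60 min. Depletion is followed by LC-MS/MS, and CLint is expressed per mg microsomal protein.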

[3] = Human liver microsomes stability; type: in vitro ADME; conditions: Human liver microsomes
Outline: as §1

[4] = Pharmacokinetic studies in rat (i.v.); type: in vivo; conditions: I-19 1.2 mg/kg i.v., rat plasma, 1.2 mg/kg; for AUC(0-t): read-out: AUC0-tlast; for half-life: read-out: Apparent t1/2 (converted)
Outline: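 Male Sprague-Dawley rats (~225-350 g) received compounds intravenously via tail vein in 5% Tween-80 in saline. Saphenous blood was sampled at 0.25, 1 and 4 h and analysed by LC-MS/MS. t1/2 and AUC0-tlast came from non-compartmental analysis using the linear up/log down trapezoidal rule.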

[5] = male, 2 μM compound, 0.5 mg/mL microsomes, 1 mM NADPH, 37° C
[6] = male, read-out: Scaled-up CLint

For `CSc1ccc2[nH]cc(CCN(C)C(C)C)c2c1` [Compound I-19, N-Methyl-N-(2-(5-(methylthio)-1H-indol-3-yl)ethyl)propan-2-amine], the “Predicted hepatic CL” value [1] was 78.36 mL/min/kg, the microsomal CLint at 2 μM ([1]; male, mouse, liver microsomes, 2 μM compound, 0.5 mg/mL microsomes, 1 mM NADPH, read-out: CLint (μL/min/mg protein)) was 138 µL/min/mg and the half-life at 2 μM [1, 5] was 10 min. The CLint scaled at 2 μM [1, 6] was 606 mL/min/kg, the “Predicted hepatic CL” value [2] was 16.73 mL/min/kg and the microsomal CLint at 2 μM ([2]; male, rat, liver microsomes, 2 μM compound, 0.5 mg/mL microsomes, 1 mM NADPH, read-out: CLint (μL/min/mg protein)) was 13.4 µL/min/mg. For the same molecule, the half-life at 2 μM [2, 5] was 103 min, the CLint scaled at 2 μM [2, 6] was 24 mL/min/kg and the “Predicted hepatic CL” value [3] was 16.93 mL/min/kg. For the same molecule, the half-life at 2 μM ([3]; 2 μM compound, 0.5 mg/mL microsomes, 1 mM NADPH, 37° C) was 18.7 min, the microsomal CLint at 2 μM ([3]; 2 μM compound, 0.5 mg/mL microsomes, 1 mM NADPH, read-out: CLint (μL/min/mg protein)) was 74.1 µL/min/mg and the CLint scaled at 2 μM ([3]; read-out: Scaled-up CLint) was 92.9 mL/min/kg. For the same molecule, the “Plasma concentration” value ([4]; 0.25 h, individual rats R07-R09) was 13.4 ng/mL and 70.3 ng/mL and 84.4 ng/mL, the “Plasma concentration” value ([4]; 1 h, individual rats R07-R09) was 34.4 ng/mL and 41.4 ng/mL and the “Plasma concentration” value ([4]; 4 h, individual rats R07-R09) was 4.95 ng/mL and 4.34 ng/mL. The “AUC0-tlast” value ([4]; individual rats R07-R09) was 103 ng·h/mL and 118 ng·h/mL, the “Apparent t1/2” value ([4]; individual rats R07-R09, estimated from 2 points only) was 53.3 min and the concentration at 0.25 h ([4]; male, Sprague-Dawley, rat, plasma, iv, 0.25 h, Mean ± SD, read-out: Plasma concentration) was 56 ± 37.6 ng/mL. The concentration at 1 h ([4]; male, Sprague-Dawley, rat, plasma, iv, 1 h, Mean ± SD, read-out: Plasma concentration) was 35.4 ± 5.57 ng/mL, the concentration at 1 h ([4]; male, Sprague-Dawley, rat, plasma, iv, 1 h, individual rats R07-R09, read-out: Plasma concentration) was 30.4 ng/mL and the concentration at 4 h ([4]; male, Sprague-Dawley, rat, plasma, iv, 4 h, Mean ± SD, read-out: Plasma concentration) was 5.35 ± 1.26 ng/mL. It also gave a concentration at 4 h ([4]; male, Sprague-Dawley, rat, plasma, iv, 4 h, individual rats R07-R09, read-out: Plasma concentration) of 6.76 ng/mL, an AUC(0-t) ([4]; male, Sprague-Dawley, rat, plasma, iv, Mean ± SD) of 96.1 ± 26.4 ng·h/mL and a half-life ([4]; male, Sprague-Dawley, rat, plasma, iv, individual rats R07-R09, estimated from 2 points only) of 60 min. For the same molecule, the AUC(0-t) ([4]; male, Sprague-Dawley, rat, plasma, iv, individual rats R07-R09) was 66.9 ng·h/mL and the half-life ([4]; male, Sprague-Dawley, rat, plasma, iv, mean (n = 2), estimated from 2 points only) was 56.8 min.
